Data as given in patent publication US6552060B1, “Asymmetric disulfides and methods of using same” (Prolx Pharmaceuticals, Inc., priority 1997, dated 2003).
Where “and” joins values, the source holds several entries; their conditions need not be identical. Equal values may be shown once. Entries after “also recorded” stand apart in the source; their conditions may differ. Read-outs that look alike come from different tables or passages of the source. Marks after values point to notes of the source that are not given here.

Assays:
[1] = system: EMT6 mouse mammary tumor cells; assay: Cytotoxicity against EMT6 cells in culture (MTT); settings: read-out: Disulfide Cytotoxicity (IC50), Table 5, 48 h exposure
TR/Trx = molecular target: T1, TR/Trx (Homo sapiens, UniProt Q16881); assay: Thioredoxin dependent reduction of insulin by human thioredoxin reductase and NADPH (IC50 TR/Trx, 96 well); assay type: biochemical
T1 sequence (Q16881 1-499 isoform Q16881-5): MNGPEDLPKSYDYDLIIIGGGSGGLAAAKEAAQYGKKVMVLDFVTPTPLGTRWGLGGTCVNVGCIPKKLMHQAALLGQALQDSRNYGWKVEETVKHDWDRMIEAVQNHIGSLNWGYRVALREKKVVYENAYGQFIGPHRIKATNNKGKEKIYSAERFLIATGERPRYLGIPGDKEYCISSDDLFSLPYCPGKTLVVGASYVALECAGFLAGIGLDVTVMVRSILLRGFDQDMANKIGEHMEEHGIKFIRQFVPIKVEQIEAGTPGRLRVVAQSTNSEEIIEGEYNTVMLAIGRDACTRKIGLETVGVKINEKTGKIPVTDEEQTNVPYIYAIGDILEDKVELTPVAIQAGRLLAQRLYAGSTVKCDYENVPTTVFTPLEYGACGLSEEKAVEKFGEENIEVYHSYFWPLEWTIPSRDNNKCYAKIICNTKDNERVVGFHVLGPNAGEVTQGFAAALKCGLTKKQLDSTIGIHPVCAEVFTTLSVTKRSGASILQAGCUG
Excerpt: When referring to the particular system being analyzed IC50 is typically followed by an abbreviation referring to that system (i.e., IC50 TR/Trx for the above described thioredoxin redox system which is comprised of thioredoxin reductase and thioredoxin).
A second plate was used for the assessment of biological activity or as a biological screen. Aliquots of disulfides dissolved in DMSO, were be transferred into 96 well plates. The assay to assess their ability to inhibit thioredoxin reductase measures the thioredoxin dependent reduction of insulin by human thioredoxin reductase and NADPH. The effects of the disulfides on the reduction of Trx by TR were measured spectrophotometrically by following the reduction of NADPH at 339 nm with insulin as the final electron acceptor in a buffered mixture of TR, Trx, NADPH and insulin.

in vitro = settings: mouse
thioredoxin = molecular target: T2, thioredoxin (Homo sapiens, UniProt P10599); assay: Direct reaction between thioredoxin and disulfides, release of 2-mercaptoimidazole at 252 nm; assay type: biochemical; settings: for initial rate for reaction between thioredoxin and disulfide: thioredoxin 2 μM, disulfide 200 μM, pH 7.4, room temperature
T2 construct: made in house; host or cells: E. coli
T2 sequence (P10599 1-105): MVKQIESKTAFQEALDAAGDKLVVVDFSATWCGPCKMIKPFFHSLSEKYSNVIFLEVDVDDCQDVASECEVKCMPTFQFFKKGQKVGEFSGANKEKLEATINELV
Description: The effects of the assymetric disulfides of Table I on the reduction of thioredoxin and C73S by thioredoxin reductase was measured spectrophotometrically by following the reduction of NADPH at 339 nm. […] In some studies the disulfides at 3.5 μM were preincubated for up to 24 hr at room temperature in air with 0.7 μM thioredoxin or C73S in 100 μM HEPES buffer, pH 7.6, and 5 mM EDTA, before measuring the reduction of the thioredoxin or C73S by thioredoxin reductase with 1 mg/ml bovine insulin as the final electron acceptor. The ability of the disulfides to act as substrates for glutathione reductase was measured by following the reduction of NADPH using an incubation mixture containing 0.15 μg/ml glutathione reductase, 140 μM NADPH, 100 mM HEPES buffer, pH 7.6, 5 mM EDTA and the disulfides at 500 μM. The ability of the disulfides to act as inhibitors of glutathione reductase was measured using oxidized glutathione, 50 μM, as the final electron acceptor. In both cases the reaction was initiated by the addition of NADPH. Thioredoxin or C32S/C35S, 2 μM, in 0.1 M sodium phosphate buffer, pH 7.4, was reacted with the disulfides at a concentration of 200 μM at room temperature. This direct reaction between thioredoxin and the disulfides was followed spectrophotometrically as the increase in absorbance at 252 nm due to release of 2-mercaptoimidazole. Initial reaction rates were measured in triplicate.
Due to the fact that the disulfides inhibited thioredoxin-dependent cell growth at concentrations below those required to inhibit thioredoxin reductase, a direct effect of the disulfides on thioredoxin was looked for. The initial reaction between the disulfides and thioredoxin was measured spectrophotometrically (FIGS. 2A and 2B). […] This is the order of reactivity which be predicted from the steric and electronic nature of the disulfides thioalkylating groups.

HL60 cells = assay: Induction of apoptosis in HL60 cells; assay type: cell-based, human; settings: within 8 h of exposure, same concentration
[2] = molecular target: T3, Human placental thioredoxin reductase (Homo sapiens, UniProt Q16881); assay: NADPH oxidation by thioredoxin reductase with the disulfide as substrate, or with thioredoxin and insulin as final electron acceptor and the disulfide as inhibitor; assay type: biochemical; settings: for Type: behaviour towards thioredoxin reductase: substrate, inhibitor or non-reactive
T3 sequence (Q16881 1-499 isoform Q16881-5): T1 sequence (Q16881 1-499 isoform Q16881-5)
Description: The thioredoxin was stored at −20° C. with 5 mM dithiothreitol which was removed before use with a desalting column (PD10, Pharmacia, Uppsala, Sweden).
Asymmetrical 2-imidazolyl disulfides which were used as a basis for further development and identified below in Table 1. In Table I, NADPH oxidation by thioredoxin reductase was measured spectrophotometrically as described with either the disulfide as the electron acceptor (substrate) or with thioredoxin and insulin as the final electron acceptor and the disulfide as inhibitors. The reactions were initiated by the addition of NADPH. Km and Ki values were calculated from Lineweaver-Burk plots of the data.
The compounds of Table 1 were synthesized by a method described previously and recrystallized prior to use. Stock solutions of the disulfides were prepared at 10 mM in ethanol and diluted in aqueous media just prior to use. N-ethylmaleimide (NEM), diamide, and DTT were obtained from Sigma Chemical Co. (St. Louis, Mo.). All other chemicals used were of reagent grade. […]

[3] = system: MCF-7 breast cancer cells in scid mice; assay: Activity against MCF-7 breast cancer cells in scid mice; assay type: in vivo; settings: for T/C %: tumor volume treated versus control at day 28
Excerpt: This is shown below in Table II.

[4] = Table 4, read-out: Disulfide inhibition of TR/Trx (IC50 TR/Trx) (converted)
[5] = Table 3, read-out: IC50 TR/Trx (converted)

SMILES | Disulfide inhibition of TR/Trx (IC50 TR/Trx) (TR/Trx; Table 4) | IC50 at 48 h (in vitro) | IC50 [1] | also measured
CCC(C)SSCc1cccc(OC)c1 (stereo not drawn) [Compound F-20] | 61 µg/mL |  | > 180 µM | 
CCCSSC1CCCC1 [Compound F-27] |  | 51 µM |  | IC50 (TR/Trx; [4]): 289 µM
Cc1nnc(SSC(C)C)s1 [Compound E-3] | 100 µg/mL |  | > 180 µM | 
CCC(C)SSc1nc2ccccc2[nH]1 (stereo not drawn) [Compound F-8] | 7 µg/mL |  | 73 µM | 
CC(C)SSc1nccn1C [Compound E-2] | 100 µg/mL |  | 33 µM | 
CCC(C)SSc1nccn1C (stereo not drawn) [Compound F-2] | 51 µg/mL |  | 43 µM | 
CC(C)SSc1ncccc1C(=O)O [Compound E-23] | 40 µg/mL |  | > 180 µM | 
CCC(C)SSc1nnc(C)s1 (stereo not drawn) [Compound F-3] |  | 7 µM |  | IC50 (TR/Trx; [5]): 68.1 µM
CCC(C)SSc1nccc(C)n1 (stereo not drawn) [Compound F-24] | 83 µg/mL |  | > 180 µM | 
CCCSSc1ncc[nH]1 [Compound B-1] | 7 µg/mL |  | 21 µM | 
CCC(C)SSc1nc2ccccc2s1 (stereo not drawn) [Compound F-11] |  |  |  | IC50 (in vitro): 33 µM
CCSSc1nccn1C [Compound A-2] | 80 µg/mL |  | 15 µM | 
CCC(C)SSc1ncccc1C(=O)O (stereo not drawn) [Compound F-23] | 81 µg/mL |  | > 180 µM | 
CCC(C)SSCc1ccccc1 (stereo not drawn) [Compound F-19] | >189 µg/mL |  | 108 µM | 
CC(C)SSc1ncc[nH]1 [Compound E-1] | 7 µg/mL |  | 24 µM | 
CC(C)(C)SSc1ncc[nH]1 [IX-2, t-butyl 2-imidazolyl disulfide] |  |  |  | rate of thiol/disulfide exchange reaction with thioredoxin relative to III-2 (thioredoxin): three logs slower; initial rate for reaction between thioredoxin and disulfide (thioredoxin; unit not given, in M/s): 3.0×10^−9; apoptosis of HL60 cells (HL60 cells): does not cause apoptosis; Type [2]: non-reactive
CCC(C)SSc1nc2cc([N+](=O)[O-])ccc2[nH]1 (stereo not drawn) [Compound F-10] | 47 µg/mL |  | 36 µM | 
CCC(C)SSc1nnc(S)s1 (stereo not drawn) [Compound F-4] |  | 36 µM |  | IC50 (TR/Trx; [5]): 117 µM
CCC(C)SSC(C)c1ccccc1 (stereo not drawn) [Compound F-22] | 201 µg/mL |  | > 180 µM | 
CCSSc1ncc[nH]1 [VI-2, ethyl 2-imidazolyl disulfide] |  | 8 µM |  | Toxicity dead/injected ([3]; 4 mg/kg/day i.p. for 14 days): 1/8; T/C % ([3]; 4 mg/kg/day i.p. for 14 days): 83.0%; Toxicity dead/injected ([3]; 6 mg/kg/day i.p. for 14 days): 0/8; T/C % ([3]; 6 mg/kg/day i.p. for 14 days): 65.8%; Toxicity dead/injected ([3]; 12 mg/kg/day i.p. for 14 days): 4/8; T/C % ([3]; 12 mg/kg/day i.p. for 14 days): 64.6%; IC50 (TR/Trx; [4]): 25 µM; Type [2]: substrate; Km ([2]; disulfide as substrate for reduction by thioredoxin reductase, Lineweaver-Burk): 48 µM and 48.1 µM
CCC(C)SSc1nc2ccccc2o1 (stereo not drawn) [Compound F-12] | 22 µg/mL |  | > 180 µM | 
Cc1ccnc(SSC(C)C)n1 [Compound E-24] | 60 µg/mL |  | > 180 µM | 
c1ccc(CSSc2ncc[nH]2)cc1 [DLK-36, benzyl 2-imidazolyl disulfide] |  | 22 µM |  | initial rate for reaction between thioredoxin and disulfide (thioredoxin): 1.3e-06 M/s; Toxicity dead/injected ([3]; 25 mg/kg/day i.p. for 14 days): 1/8; T/C % ([3]; 25 mg/kg/day i.p. for 14 days): 100.7%; Toxicity dead/injected ([3]; 40 mg/kg/day i.p. for 14 days): 0/6; T/C % ([3]; 40 mg/kg/day i.p. for 14 days): 23.7^c %; tumor inhibition ([3]; MCF-7 tumor system): 65%; Type [2]: competitive inhibitors; also recorded: inhibitor; Ki ([2]; competitive inhibitors of the reduction of thioredoxin by thioredoxin reductase): 31 µM
CCCCSSc1nccn1C [Compound C-2] | 147 µg/mL |  | 26 µM | 
ClCCCSSc1ncnc2[nH]cnc12 [Compound H-7] |  |  | 36 µM | 
CCC(C)SSc1nccs1 (stereo not drawn) [Compound F-5] |  | 34 µM |  | 

Second part, led by results:

Disulfide inhibition of TR/Trx (IC50 TR/Trx) (TR/Trx; Table 4) | IC50 at 48 h (in vitro) | SMILES | IC50 [1] | also measured
8 µg/mL |  | CC(C)CSSc1ncc[nH]1 [Compound G-1] | 28 µM | 
 | 28 µM | CC(SSc1nccs1)c1ccccc1 (stereo not drawn) [Compound J-1] |  | IC50 (TR/Trx; [5]): 15.8 µM
 | 29 µM | CC(O)C(C)SSc1nc2ccccc2o1 (stereo not drawn) [Compound M-29] |  | 
 | 46 µM | CC(O)C(C)SSc1ccccc1 (stereo not drawn) [Compound M-13] |  | 
